What all share (settings): primary screen
The test system of experiment [1] is ENR+CD organoids (ISC to Paneth cell differentiation). Put plainly: Primary screen: basal (non-stimulated) lysozyme secretion LYZ.NS, 2.5-D 384-well ENR+CD organoid differentiation. It is filed as cell-based, mouse. The text has this:
(§1) High-throughput screening.

The next experiment deals with ENR+CD organoids. Put plainly: Primary screen: ATP (CellTiter-Glo 3D, CTG) cell number/viability, 2.5-D 384-well ENR+CD organoids.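 Note: compounds given at plating and again on day 3 over a 6-day differentiation from ENR+CV stem-cell-enriched precursors, ATP measured on day 6, plate median as control.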 In general terms: In ATP-based viability assays light output follows the ATP content of the culture.
Experiment [2] relates to ENR+CD organoids (ISC to Paneth cell differentiation). Put plainly: Primary screen: CCh-stimulated lysozyme secretion LYZ.S, 2.5-D 384-well ENR+CD organoid differentiation. The experiment is classed as cell-based, mouse.
Excerpt: as §1

Where a name gives a salt, the structure may show the parent alone.

As to `CC(C)NCC(O)COc1ccc(COCCOC(C)C)cc1` (stereo not drawn) [Bisoprolol fumarate], the Dose.FC.LYZ.NS in experiment [1] (dose 0.08 uM) is on record as 0.085 log2 fold change; in experiment [1] (dose 0.40 uM), 0.075 log2 fold change; in experiment [1] (dose 2.00 uM), 0.075 log2 fold change; in experiment [1] (dose 10.00 uM) it was 0.003 log2 fold change. The “Z.LYZ.NS (standard z score)” value is listed as 0.739 in experiment [1] (dose 0.08 uM), 0.649 in experiment [1] (dose 0.40 uM), 0.656 in experiment [1] (dose 2.00 uM) and 0.027 in experiment [1] (dose 10.00 uM). Further, the Dose.FC.CTG in the experiment on ENR+CD organoids (dose 0.08 uM) was −0.104 log2 fold change; with ENR+CD organoids (dose 0.40 uM), −0.057 log2 fold change; with ENR+CD organoids (dose 2.00 uM), −0.020 log2 fold change; with ENR+CD organoids (dose 10.00 uM), 0.058 log2 fold change. Moreover, the Dose.FC.LYZ.S in experiment [2] (dose 0.08 uM) turned out to be 0.086 log2 fold change; in experiment [2] (dose 0.40 uM), 0.129 log2 fold change; in experiment [2] (dose 2.00 uM) it was 0.074 log2 fold change; in experiment [2] (dose 10.00 uM), 0.015 log2 fold change.
Take `COc1ccccc1Oc1c(NS(=O)(=O)c2ccc(C(C)(C)C)cc2)nc(-c2ncccn2)nc1OCCO` [Bosentan Hydrate]: the Dose.FC.LYZ.NS in experiment [1] (dose 0.08 uM) is listed as 0.090 log2 fold change; in experiment [1] (dose 0.40 uM) it was 0.068 log2 fold change; in experiment [1] (dose 2.00 uM) it was 0.039 log2 fold change; in experiment [1] (dose 10.00 uM) it was 0.058 log2 fold change. Further, the “Z.LYZ.NS (standard z score)” value in experiment [1] (dose 0.08 uM) stood at 0.785; in experiment [1] (dose 0.40 uM) it was 0.589; in experiment [1] (dose 2.00 uM) it was 0.337; in experiment [1] (dose 10.00 uM), 0.508. The Dose.FC.CTG with ENR+CD organoids (dose 0.08 uM) is 0.204 log2 fold change; with ENR+CD organoids (dose 0.40 uM), 0.207 log2 fold change; in the experiment on ENR+CD organoids (dose 2.00 uM) it was 0.121 log2 fold change; in the experiment on ENR+CD organoids (dose 10.00 uM), 0.085 log2 fold change. Further, the Dose.FC.LYZ.S in experiment [2] (dose 0.08 uM) amounted to 0.145 log2 fold change; in experiment [2] (dose 0.40 uM), 0.100 log2 fold change; in experiment [2] (dose 2.00 uM) it was 0.014 log2 fold change; in experiment [2] (dose 10.00 uM), 0.045 log2 fold change.
For `CCN[C@H]1CN(CCCOC)S(=O)(=O)c2sc(S(N)(=O)=O)cc21` [Brinzolamide], the Dose.FC.LYZ.NS in experiment [1] (dose 0.08 uM) is 0.133 log2 fold change; in experiment [1] (dose 0.40 uM), 0.084 log2 fold change; in experiment [1] (dose 2.00 uM) it was 0.059 log2 fold change; in experiment [1] (dose 10.00 uM), 0.060 log2 fold change. For the same compound, the “Z.LYZ.NS (standard z score)” value was found to be 1.159 in experiment [1] (dose 0.08 uM), 0.733 in experiment [1] (dose 0.40 uM), 0.511 in experiment [1] (dose 2.00 uM) and 0.521 in experiment [1] (dose 10.00 uM). Besides, the Dose.FC.CTG with ENR+CD organoids (dose 0.08 uM) is listed as −0.007 log2 fold change; with ENR+CD organoids (dose 0.40 uM), −0.068 log2 fold change; in the experiment on ENR+CD organoids (dose 2.00 uM), 0.118 log2 fold change; in the experiment with ENR+CD organoids (dose 10.00 uM) it was 0.078 log2 fold change. For the same compound, the results for the “Z.CTG (standard z score)” value with ENR+CD organoids (dose 0.40 uM), in the experiment with ENR+CD organoids (dose 2.00 uM) and in the experiment with ENR+CD organoids (dose 10.00 uM) were −0.163, 0.282 and 0.186, respectively. Also, the Dose.FC.LYZ.S in experiment [2] (dose 0.08 uM) turned out to be 0.030 log2 fold change; in experiment [2] (dose 0.40 uM), 0.052 log2 fold change; in experiment [2] (dose 2.00 uM), 0.064 log2 fold change; in experiment [2] (dose 10.00 uM) it was 0.083 log2 fold change.

The record behind these values is patent publication US20220323406A1, “METHODS AND COMPOSITIONS FOR DIFFERENTIATING STEM CELLS” (Massachusetts Institute of Technology, priority 2019, published 2022).
